Patent US9682953B2, “Amide compounds, compositions and applications thereof” (Advinus Therapeutics Limited, priority 2011, dated 2017)
Like-named read-outs stand apart in the source and are kept apart here.

Tests used:
[1] = biological target: rat Fatty Acid Amide Hydrolase (FAAH) (Rattus norvegicus (Rat), UniProt P97612); assay: FAAH in vitro fluorescence assay (AAMCA hydrolysis), rat enzyme; assay type: biochemical; settings: rat FAAH; for IC50: read-out: rFAAH IC50; for inhibition at 10 µM: read-out: rFAAH % inhibition at 10 uM; for inhibition at 0.1 µM: read-out: rFAAH % inhibition at 100 nM, 100 nM (tier I)
Procedure: Material and Reagents: All reagents were purchased from Sigma-Aldrich unless specified. […] Chaperone protein groEL-groES in pGRO7 plasmid (Takara Bio Inc, Japan) was co-expressed with Fatty Acid Amide Hydrolase (FAAH) to improve solubility of the protein expressed in E coli. […] Briefly, the bacterial cultures in Luria Broth (2 L) were induced with arabinose (2 mM) and Isopropyl (β-D-1-thiogalactopyranoside, IPTG (1 mM), for 20 h at room temperature. The cultures were centrifuged at 1200×g for 10 min and the cell pellet was resuspended in 100 mL buffer containing of 20 mM NaPi (pH 7.4), 100 mM NaCl, Benzonase (500u), Aprotinin (1 μg/mL) and Leupeptin (1 μg/mL). Cells were lyzed by sonication (Amp 20%, Pulse 15 s×15, on ice) and the cell debris removed by centrifugation at 5000×g for 20 min. The supernatant was enriched via ultracentrifugation at 100,000×g for 1 h and the cell pellet was resuspended in 16 mL buffer containing 20 mM NaPi (pH 7.8), 500 mM NaCl, 1% Triton X-100. The resuspended cell extract was subjected to ultra-centrifugation at 100,000×g for 1 h and the enriched supernatant was used in the in vitro assay. All protein extraction steps were carried out on ice or at 4° C.
The assay was carried out in 200 μL volume in a 96-well black polystyrene plate (Greiner Bio-one, Germany). Each reaction consisted of human Fatty Acid Amide Hydrolase (FAAH) protein and 10 μM AAMCA in assay buffer containing 50 mM HEPES, 1 mM EDTA and 0.1% BSA, pH 7.4. The reaction was incubated with 2 μL of varying concentrations of inhibitor in DMSO (final concentration of DMSO 1%) with shaking for 1 min and monitored for increase in fluorescence in kinetic mode for 50 min. […] Rate of reaction as a function of the concentration of the inhibitor was used to determine the IC50 of the inhibitors. Data was analyzed using GraphPad Prism 5 (GraphPad Software Inc., San Diego, Calif.). The activity of the compounds for rat Fatty Acid Amide Hydrolase (FAAH) was evaluated as described above with rat Fatty Acid Amide Hydrolase (FAAH) protein and 10 μM AAMCA substrate.

[2] = biological target: human Fatty Acid Amide Hydrolase (FAAH) (Homo sapiens (Human), UniProt O00519); assay: biochemical; settings: for IC50: read-out: hFAAH IC50
Sequence of human Fatty Acid Amide Hydrolase (FAAH) (O00519 30-579): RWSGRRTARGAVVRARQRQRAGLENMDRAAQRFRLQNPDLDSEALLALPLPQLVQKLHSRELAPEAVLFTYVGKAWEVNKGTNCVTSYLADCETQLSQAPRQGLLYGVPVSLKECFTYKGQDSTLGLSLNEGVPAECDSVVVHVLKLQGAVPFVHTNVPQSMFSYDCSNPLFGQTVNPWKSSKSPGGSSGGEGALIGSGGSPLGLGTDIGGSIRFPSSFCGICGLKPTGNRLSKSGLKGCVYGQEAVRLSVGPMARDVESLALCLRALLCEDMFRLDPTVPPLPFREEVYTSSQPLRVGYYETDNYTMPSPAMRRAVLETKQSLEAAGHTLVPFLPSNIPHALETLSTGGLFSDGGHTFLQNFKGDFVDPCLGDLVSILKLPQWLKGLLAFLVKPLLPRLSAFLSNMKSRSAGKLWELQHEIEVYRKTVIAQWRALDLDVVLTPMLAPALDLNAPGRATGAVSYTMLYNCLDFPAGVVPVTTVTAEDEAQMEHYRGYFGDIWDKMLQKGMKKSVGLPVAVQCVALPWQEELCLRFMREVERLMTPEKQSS

Sequence of rat Fatty Acid Amide Hydrolase (FAAH) (P97612 30-579): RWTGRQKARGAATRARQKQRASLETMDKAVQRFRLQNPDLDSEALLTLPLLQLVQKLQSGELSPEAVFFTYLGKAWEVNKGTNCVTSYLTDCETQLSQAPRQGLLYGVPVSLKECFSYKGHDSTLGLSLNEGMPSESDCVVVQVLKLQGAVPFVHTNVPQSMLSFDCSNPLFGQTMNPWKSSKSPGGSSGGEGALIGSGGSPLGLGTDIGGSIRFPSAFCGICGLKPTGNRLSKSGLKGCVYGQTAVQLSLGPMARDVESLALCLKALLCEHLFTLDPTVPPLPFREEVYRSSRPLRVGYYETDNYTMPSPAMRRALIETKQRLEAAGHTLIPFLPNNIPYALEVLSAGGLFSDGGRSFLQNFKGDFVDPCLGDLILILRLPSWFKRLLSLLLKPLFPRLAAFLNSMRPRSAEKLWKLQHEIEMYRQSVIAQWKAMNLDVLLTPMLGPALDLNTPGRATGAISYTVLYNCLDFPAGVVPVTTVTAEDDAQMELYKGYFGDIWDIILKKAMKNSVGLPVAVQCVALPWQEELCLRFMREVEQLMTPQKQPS

SMILES	IC50 [1]	IC50 [2]	IC50 ([2]; human FAAH)	other results
O=C(NC1CCC(=Cc2cccc(Oc3ccc(C(F)(F)F)cn3)c2)CC1)c1ccc(-n2cccn2)nc1 (stereo not drawn) [Example 5.A-6, 6-Pyrazol-1-yl-N-[4-[[3-[[5-(trifluoromemyl)-2-pyridyl]oxy]phenyl]methylene]cyclohexyl]pyridine-3-carboxamide]	7 nM	7 nM		
O=C(NC1CCC(=Cc2cccc(Oc3ccc(C(F)(F)F)cn3)c2)CC1)c1ccc(-n2ccnn2)nc1 (stereo not drawn) [Example 2.B-14, 6-(Triazol-1-yl)-N-[4-[[3-[[5-(trifluoromethyl)-2-pyridyl]oxy]phenyl]methylene]cyclohexyl]pyridine-3-carboxamide]	11 nM	2 nM		
Nc1ccc(C(=O)NC2CCC(=Cc3cccc(Oc4ccc(C(F)(F)F)cn4)c3)CC2)cn1 (single isomer, unassigned; (+)) [Example 20.A-3, (+)-6-Amino-N-[4-[[3-[[5-(trifluoromethyl)-2-pyridyl]oxy]phenyl]methylene]cyclohexyl]pyridine-3-carboxamide]		361 nM		inhibition at 10 µM [1]: 70%
O=C(NC1CCC(=Cc2cccc(Oc3ccc(C(F)(F)F)cn3)c2)CC1)c1c[nH]c2ccccc12 (single isomer, unassigned; (+)) [Example 20.A-17, (+)-N-[4-[[3-[[5-(trifluoromethyl)-2-pyridyl]oxy]phenyl]methylene]cyclohexyl]-1H-indole-3-carboxamide]		155 nM		inhibition at 10 µM [1]: 90%
Nc1ccc(C(=O)NC2CCC(=Cc3cccc(Oc4ccc(C(F)(F)F)cn4)c3)CC2)cn1 (stereo not drawn) [Example 2.C-1, 6-Amino-N-[4-[[3-[[5-(trifluoromethyl)-2-pyridyl]oxy]phenyl]methylene]cyclohexyl]pyridine-3-carboxamide]	31 nM	5 nM		
CN(C)c1ccc(C(=O)NC2CCC(=Cc3cccc(Oc4ccc(C(F)(F)F)cn4)c3)CC2)cn1 (stereo not drawn) [Example 5.1, 6-(Dimethylamino)-N-[4-[[3-[[5-(trifluoromethyl)-2-pyridyl]oxy]-phenyl]methylene]cyclohexyl]pyridine-3-carboxamide]	13 nM	7 nM		
O=C(NC1CCC(=Cc2cccc(Oc3ccc(C(F)(F)F)cn3)c2)CC1)c1ccnnc1 (stereo not drawn) [Example 2.A-17, N-[4-[[3-[[5-(Trifluoromethyl)-2-pyridyl]oxy]phenyl]methylene]cyclohexyl]pyridazine-4-carboxamide]			10 nM	inhibition at 0.1 µM [1]: 14%
O=C(NC1CCC(=Cc2cccc(Oc3ccc(C(F)(F)F)cn3)c2)CC1)c1cn[nH]c1 (single isomer, unassigned; (+)) [Example 20.A-11, (+)-N-[4-[[3-[[5-(trifluoromethyl)-2-pyridyl]oxy]phenyl]methylene]cyclohexyl]-1H-pyrazole-4-carboxamide]			78 nM	inhibition at 10 µM [1]: 86%
Cc1[nH]ncc1C(=O)NC1CCC(=Cc2cccc(Oc3ccc(C(F)(F)F)cn3)c2)CC1 (stereo not drawn) [Example 2.A-23, 5-Methyl-N-[4-[[3-[[5-(trifluoromethyl)-2-pyridyl]oxy]phenyl]methylene]cyclohexyl]-1H-pyrazole-4-carboxamide]	29 nM		5 nM	
O=C(NC1CCC(=Cc2cccc(Oc3ccc(C(F)(F)F)cn3)c2)CC1)c1ccc(-n2cc(Cl)cn2)nc1 (stereo not drawn) [Example 2.B-8, 6-(4-Chloropyrazol-1-yl)-N-[4-[[3-[[5-(trifluoromethyl)-2-pyridyl]oxy]phenyl]methylene]cyclohexyl]pyridine-3-carboxamide]	21 nM		5 nM	
O=C(NC1CCC(=Cc2cccc(Oc3ccc(C(F)(F)F)cn3)c2)CC1)c1ccc(-c2nnn[nH]2)nc1 (stereo not drawn) [Example 11.1, 6-(1H-Tetrazol-5-yl)-N-[4-[[3-[[5-(trifluoromethyl)-2-pyridyl]oxy]-phenyl]methylene]cyclohexyl]pyridine-3-carboxamide]		12 nM		inhibition at 0.1 µM [1]: 50%
Nc1ccc(C(=O)NC2CCC(=Cc3cccc(Oc4ccc(C(F)(F)F)c(Cl)n4)c3)CC2)cn1 (stereo not drawn) [Example 2.E-20, 6-Amino-N-[4-[[3-[[6-chloro-5-(trifluoromethyl)-2-pyridyl]oxy]phenyl]methylene]cyclohexyl]pyridine-3-carboxamide]	71 nM		3 nM	
O=C(NC1CCC(=Cc2cccc(Oc3ccc(C(F)(F)F)cn3)c2)CC1)c1cc[nH]n1 (stereo not drawn) [Example 2.A-1, N-[4-[[3-[[5-(Trifluoromethyl)-2-pyridyl]oxy]phenyl]methylene]cyclohexyl]-1H-pyrazole-3-carboxamide]	418 nM		10 nM	
O=C(NC1CCC(=Cc2cccc(Oc3ccc(C(F)(F)F)cn3)c2)CC1)c1cccnn1 (stereo not drawn) [Example 2.A-11, N-[4-[[3-[[5-(Trifluoromethyl)-2-pyridyl]oxy]phenyl]methylene]cyclohexyl]pyridazine-3-carboxamide]	194 nM	11 nM		
O=C(NC1CCC(=Cc2cccc(Oc3ccc(C(F)(F)F)cn3)c2)CC1)c1ccc(C(F)(F)F)nc1 (stereo not drawn) [Example 2.A-6, 6-(Trifluoromethyl)-N-[4-[[3-[[5-(trifluoromethyl)-2-pyridyl]oxy]phenyl]methylene]cyclohexyl]pyridine-3-carboxamide]			102 nM	inhibition at 0.1 µM [1]: 37%
O=C(NC1CCC(=Cc2cccc(Oc3ccc(C(F)(F)F)cn3)c2)CC1)c1ccc(NC2CC2)nc1 (stereo not drawn) [Example 5.A-10, 6-(Cyclopropylamino)-N-[4-[[3-[[5-(trifluoromethyl)-2-pyridyl]oxy]phenyl]methylene]cyclohexyl]pyridine-3-carboxamide]	74 nM		25 nM	
O=C(NC1CCC(=Cc2cccc(Oc3ccc(C(F)(F)F)cn3)c2)CC1)c1ncccn1 (stereo not drawn) [Example 2.A-16, N-[4-[[3-[[5-(Trifluoromethyl)-2-pyridyl]oxy]phenyl]methylene]cyclohexyl]pyrimidine-2-carboxamide]			15 nM	inhibition at 0.1 µM [1]: 38%
O=C(NC1CCC(=Cc2cccc(Oc3ccc(C(F)(F)F)cn3)c2)CC1)c1cn[nH]c1 (stereo not drawn) [Example 2.A-9, N-[4-[[3-[[5-(Trifluoromethyl)-2-pyridyl]oxy]phenyl]methylene]cyclohexyl]-1H-pyrazole-4-carboxamide]	53 nM		2 nM	
O=C(NC1CCC(=Cc2cccc(Oc3ccc(C(F)(F)F)cn3)c2)CC1)c1ccc(N2CCCC2)nc1 (stereo not drawn) [Example 5.A-2, 6-Pyrrolidin-1-yl-N-[4-[[3-[[5-(trifluoromethyl)-2-pyridyl]oxy]phenyl]methylene]cyclohexyl]pyridine-3-carboxamide]	28 nM			inhibition at 0.1 µM ([2]; read-out: hFAAH % inhibition at 100 nM, human FAAH, 100 nM (tier I)): 54%
O=C(NC1CCC(=Cc2cccc(Oc3ccc(C(F)(F)F)cn3)c2)CC1)c1ccncc1 (stereo not drawn) [Example 2.A-8, N-[4-[[3-[[5-(Trifluoromethyl)-2-pyridyl]oxy]phenyl]methylene]cyclohexyl]pyridine-4-carboxamide]			14 nM	inhibition at 0.1 µM [1]: 14%
O=C(NC1CCC(=Cc2cccc(Oc3ccc(C(F)(F)F)cn3)c2)CC1)c1ccc(-n2nccn2)nc1 (stereo not drawn) [Example 2.B-15, 6-(Triazol-2-yl)-N-[4-[[3-[[5-(trifluoromethyl)-2-pyridyl]oxy]phenyl]methylene]cyclohexyl]pyridine-3-carboxamide]	9 nM		3 nM	
